# Assay results as given in patent publication US11707440B2 (priority 2017, dated 2023).
# What was measured:
# [1] = tested on: patients with treatment-resistant depression (TRD); assay: BPRS positive symptom subscale, Example 7; parameters: species or system human; conditions: in vivo
# Protocol: (§1) Adverse events were monitored throughout the study. Other safety assessments (i.e., laboratory tests, vital signs, physical examination) were performed at pre-specified time points. Vital signs, the Clinician Administered Dissociative States Scale (CADSS; Bremner, “Measurement of dissociative states with the clinician-administered dissociative states scale (CADSS)”, J. Traumatic Stress, 1998, 11(1):125-136), and the 4-item positive symptom subscale from the Brief Psychiatric Rating Scale (BPRS; Overall, “The Brief Psychiatric Rating Scale. Psychological Reports”, 1962, 10:799-812) were assessed pre-dose, at 40 minutes, and 2 hours post-dose.
# [2] = tested on: female Sprague-Dawley rats, PCG/RSC of the brain; assay: 14-day repeated dose neurotoxicity study, intranasal instillation; conditions: 14-day study, 54 mg/day
# Protocol: Esketamine HCl was administered into each nostril of female rats at a volume of 50 μl per nostril either once, twice or thrice daily by intranasal instillation for 14 consecutive days at doses of 0 (vehicle), 18, 36 or 54 mg/day. At each instillation, the second nostril was dosed immediately after the first nostril. The interval between subsequent instillations into both nostrils was 5 minutes when dosed 2 or 3 times per day.
# The vehicle control group received 3 subsequent intranasal instillations of the vehicle into both nostrils (50 μL per nostril) with 5-minute intervals for 14 consecutive days.
# The positive control group received a single subcutaneous injection of (+)MK-801 at 48 hours prior to the necropsy of the vehicle control and esketamine HCl-treated animals.
# Each group of main study animals consisted of 12 female rats. Four satellite animals were added to the esketamine HCl-dosed groups of main study animals for TK purposes. The plasma exposure to esketamine was measured in these animals on the first and the last day of dosing at various time points up to and including 24 hours after the first instillation.
# Due to logistic constraints associated with the whole body perfusion procedure of the animals at necropsy, a staggered start was applied to the study. Consequently, all 5 groups of main study animals were divided into three subgroups of 4 animals each. For each of these subgroups treatment started on a different day. The perfusion procedure is the is the same as described for the single dose study.
# All vehicle- and esketamine HCl-treated animals were sacrificed at 48 hours after the last instillation. […] The brain tissue of the vehicle control-, positive control- and esketamine HCl-treated rats were processed at the same time and handled in the same way in batches of 4 animals per group.
# Furthermore, clinical observations were recorded for the esketamine HCl-dosed rats on the day of dosing at 0 till 5 minutes, 15 and 30 minutes, and at 1, 2, 4, 6 hours post-dose, at the end of the working day and at 24 hours after the last instillation in the single dose study and on the first day of dosing, after one week and towards the end of the dosing period in the repeated dose study. Body weight and body weight gain were measured daily. Food consumption was measured weekly in the repeated dose study.
# On the day of terminal kill, a complete physical examination was performed on the rats in fasted condition and body weight was recorded. The surviving animals were anaesthetized by inhalation of an isoflurane (IsoFlo® Zoetis, Belgium)/oxygen mixture and killed by exsanguination via the carotid artery. […] All terminally killed rats or those killed pre-terminally were perfused with 4% paraformaldehyde in the single dose study and with glutaraldehyde 3% in potassium phosphate buffer 0.09 M with 1.4% sucrose in the repeated dose study.
# Brain tissue was sampled and processed routinely. The trimmed and embedded tissue was sectioned and stained with hematoxylin-eosin (HE). Histoprocessing and staining were carried out in three batches of 4 animals per group (each batch thus containing 4 animals from vehicle control-, positive control- and the three esketamine HCl-treated groups). In the single dose study duplicate brain sections were stained with Fluoro-Jade (FJ).
# All tissues showing gross abnormalities were examined […]. Histopathological examination was performed on 7 levels of brain tissue according to Bolon (2013. Toxicol. Pathol. 41(7), 1028-1048) from the vehicle control-, positive control-, and high dose esketamine HCl-treated groups in the single dose study, and in all groups in the repeated dose study.
# [3] = tested on: elderly subjects with TRD; assay type: in vivo, human; conditions: each dosing day
# From the text: The Modified Observer's Assessment of Alertness/Sedation (MOAA/S) was used to measure treatment-emergent sedation with correlation to levels of sedation defined by the American Society of Anesthesiologists (ASA) continuum. The MOAA/S scores range from 0 (No response to painful stimulus; corresponds to ASA continuum for general anesthesia) to 5 (Readily responds to name spoken in normal tone [awake]; corresponds to ASA continuum for minimal sedation). The proportion of subjects with sedation was <4% for the esketamine group for each dosing day.
# glutamate NMDA receptor = conditions: in vitro; cited from earlier work
# adult subjects with TRD [4] = assay type: in vivo, human
# Protocol: Blood pressure and pulse/heart rate measurements were assessed supine with a completely automated device. Manual techniques were used only if an automated device is not available. Blood pressure and pulse/heart rate measurements were preceded by at least 5 minutes of rest in a quiet setting without distractions (e.g., television, cell phones).
# Transient blood pressure increases peaked for the esketamine group at approximately 40 minutes post dose and returned to normal range at 90 minutes. […] The maximum mean increase (across all dosing days) in diastolic BP were 8.1 in the esketamine group and 4.5 in the active comparator group. FIGS. 7 and 8 present the means for measured blood pressure over time by treatment group in the double-blind phase.
# [5] = tested on: patients with treatment-resistant depression (TRD); assay: CADSS, Example 7; conditions: human, in vivo, other: intranasal
# Protocol: as §1
# adult subjects with TRD [6] = conditions: US patients
# From the text: Adverse events were reported by the subject (or, when appropriate, by a caregiver, surrogate, or the subject's legally acceptable representative) for the duration of the study. Adverse events were followed by the investigator. TEAEs of special interest were examined separately.
# The verbatim terms used in the eCRF by investigators to identify adverse events were coded using the MedDRA. All reported adverse events with onset during the double-blind induction phase (i.e., TEAEs, and adverse events that have worsened since baseline) were included in the analysis. For each adverse event, the percentage of subjects who experience at least 1 occurrence of the given event was summarized by treatment group. Adverse events occurring during the follow-up phase were summarized separately.
# TEAEs of special interest were examined separately. AEs of special interest were listed in the SAP. Subjects who died, who discontinued treatment due to an adverse event, or who experienced a severe or a serious adverse event were summarized separately.
# An adverse event is any untoward medical occurrence in a clinical study subject administered a medicinal (investigational or non-investigational) product. […]
# [7] = human, in vivo, other: intranasal
compound,measurement,setting,value
"CN[C@]1(c2ccccc2Cl)CCCCC1=O [esketamine, (S)-2-(2-chlorophenyl)-2-(methylamino)cyclohexanone]",Symptoms suggestive of psychosis (BPRS-positive assessment),[1],No participant manifested symptoms suggestive of psychosis
same,AUC-based safety margin compared with the maximum 84 mg clinical dose,[2],~11 fold
same,Cmax-based safety margin compared with the maximum 84 mg clinical dose,[2],approximately 17 fold
same,Proportion of subjects with sedation (post dose MOAA/S score of ≤3),[3],< 4%
same,Greater affinity for the glutamate NMDA receptor than R-ketamine,glutamate NMDA receptor,3 to 4 fold
same,Maximum mean increase in diastolic BP (across all dosing days),adult subjects with TRD [4]; double-blind phase,8.1
same,Time of peak of transient blood pressure increases,adult subjects with TRD [4]; [7],approximately 40 minutes post dose
same,Time of return of blood pressure to normal range,adult subjects with TRD [4]; [7],90 min
same,Time of peak of perceptual changes/dissociative symptoms (CADSS),[5],30 to 40 min
same,Time to resolution of perceptual changes/dissociative symptoms (CADSS),[5],≤ 2 h
same,Patients who withdrew from nasal spray drug,adult subjects with TRD [6],3 patients
